Assay results: patent US9701691B2, “Thienopyrimidine compounds” (Hoffmann-La Roche Inc., priority 2012, dated 2017)
Where a name gives a salt, the structure may show the parent alone.

What was measured:
[1] = system: B-cell lymphocytes (CD20+) in human whole blood, CD69 up-regulation; experiment: B Cell CD69 Up-Regulation Assay in Human Whole Blood; assay type: cell-based; conditions: goat anti-human IgM 50 μg/ml stimulation for 20 hrs, CD69hi CD20+ B cells, read-out: HWB, IC50
Experimental: B Cell CD69 Up-Regulation Assay in Human Whole Blood
Human Blood was collected from healthy volunteers into Vacutainers (BD Biosciences, San Jose, Calif.) containing sodium heparin. Test compound was suspended in DMSO and nine half-log serial dilutions were made. The concentration of DMSO in the assay was 0.5%. […] whole blood was pre-incubated with compound for 30 min and then stimulated with goat anti-human IgM (50 μg/ml, Southern Biotech) for 20 hrs. At the end of the 20 hour incubation, samples were incubated with fluorochrome-conjugated antibodies, PE mouse anti-human CD20 and APC Mouse anti-human CD69 (BD Biosciences), for 30 minutes. Samples were then lysed with Lyse solution (BD) and washed with PBS containing 2% fetal bovine serum (FBS). Fluorescent signals were acquired on flow cytometer LSR II (BD) and data were analyzed by Flow Jo. The percentage of activated (CD69hi) B-cell lymphocytes (CD20+) were determined using un-stimulated (negative control) and stimulated (positive control) wells as reference guidelines. The percentage inhibition was calculated and an IC50 curve was constructed using Xfit in Microsoft Excel with sigmoidal curve fitting.

[2] = biological target: Recombinant human full length SYK protein (Homo sapiens (Human), UniProt P43405); experiment: SYK kinase assay (33P ATP incorporation into biotinylated peptide); assay type: biochemical; conditions: ATP 20 μM
Experimental: This assay is performed in 96-well format for IC50 determination with 8 samples which represented 10 half log dilutions and a 40 μL reaction volume. […] Phosphorylated products were detected upon termination of reactions with EDTA and the addition of Streptavidin coated beads.
Assay plates: 96-well MultiScreen 0.65 um filter plates (Millipore Cat. No.: MADVNOB10)
final concentration: 50 mM HEPES pH7.5
BSA: Bovine Serum Albumin Fraction V, fatty acid free (Roche Diagnostics GmbH, Cat. No. 9100221) diluted to a final concentration of 0.1%
Assay Dilution Buffer (ADB): 50 mM HEPES, 0.1 mM EGTA, 0.1 mM Na Vanadate, 0.1 mM β-glycerophosphate, 10 mM MgCl2, 1 mM DTT, 0.1% BSA, pH 7.5
Bead wash buffer: 10 g/L PBS (Phosphate buffered saline) with 2M NaCl+1% phosphoric acid.

SMILES: Cn1cnc2c(NC(=O)c3csc4cnc(N[C@@H]5CCOC[C@@H]5N)nc34)cccc21 [Compound 11, 2-((3R,4R)-3-Amino-tetrahydro-pyran-4-ylamino)-thieno[3,2-d]pyrimidine-7-carboxylic acid (1-methyl-1H-benzoimidazol-4-yl)-amide hydrochloride]
- IC50 [1]: 1.44 µM

SMILES: N[C@H]1COCC[C@H]1Nc1ncc2scc(C(=O)Nc3ccc4ccccc4c3)c2n1 [Compound 16, 2-((3R,4R)-3-Amino-tetrahydro-pyran-4-ylamino)-thieno[3,2-d]pyrimidine-7-carboxylic acid naphthalen-2-ylamide]
- IC50 [1]: 3.73 µM

SMILES: Cc1cc(NC(=O)c2csc3cnc(N[C@@H]4CCCC[C@@H]4N)nc23)cc2cccnc12 [Compound 2, 2-((1R,2S)-2-Amino-cyclohexylamino)-thieno[3,2-d]pyrimidine-7-carboxylic acid (8-methyl-quinolin-6-yl)-amide]
- IC50 [2]: < 0.001 µM
- IC50 [1]: 0.19 µM

SMILES: Cc1ccc(NC(=O)c2csc3cnc(N[C@@H]4CCOC[C@@H]4N)nc23)cc1 [Compound 18, 2-((3R,4R)-3-Amino-tetrahydro-pyran-4-ylamino)-thieno[3,2-d]pyrimidine-7-carboxylic acid p-tolylamide]
- IC50 [1]: 12.2 µM

SMILES: N[C@H]1CCCC[C@H]1Nc1ncc2scc(C(=O)Nc3ccc4ncccc4n3)c2n1 [Compound 10, 2-((1R,2S)-2-Amino-cyclohexylamino)-thieno[3,2-d]pyrimidine-7-carboxylic acid [1,5]naphthyridin-2-ylamide]
- IC50 [1]: 3.74 µM

SMILES: Cc1cc(C)nc(NC(=O)c2csc3cnc(N[C@@H]4CCOC[C@@H]4N)nc23)c1 [Compound 24, 2-((3R,4R)-3-Amino-tetrahydro-pyran-4-ylamino)-thieno[3,2-d]pyrimidine-7-carboxylic acid (4,6-dimethyl-pyridin-2-yl)-amide]
- IC50 [1]: 1.53 µM

SMILES: N[C@H]1COCC[C@H]1Nc1ncc2scc(C(=O)Nc3cccc(-n4ccnn4)n3)c2n1 [Compound 6, 2-((3R,4R)-3-Amino-tetrahydro-pyran-4-ylamino)-thieno[3,2-d]pyrimidine-7-carboxylic acid (6-[1,2,3]triazol-1-yl-pyridin-2-yl)-amide]
- IC50 [1]: 4.29 µM

SMILES: N[C@H]1COCC[C@H]1Nc1ncc2scc(C(=O)Nc3cnn4cccnc34)c2n1 [Compound 22, 2-((3R,4R)-3-Amino-tetrahydro-pyran-4-ylamino)-thieno[3,2-d]pyrimidine-7-carboxylic acid pyrazolo[1,5-a]pyrimidin-3-ylamide]
- IC50 [1]: 0.92 µM

SMILES: Cn1cnc2c(NC(=O)c3csc4cnc(NCCN)nc34)cccc21 [Compound 12, 2-(2-Amino-ethylamino)-thieno[3,2-d]pyrimidine-7-carboxylic acid (1-methyl-1H-benzoimidazol-4-yl)-amide trifluoroacetate]
- IC50 [1]: 3.06 µM

SMILES: Cc1ccc(NC(=O)c2csc3cnc(N[C@@H]4CCOC[C@@H]4N)nc23)nc1C [Compound 25, 2-((3R,4R)-3-Amino-tetrahydro-pyran-4-ylamino)-thieno[3,2-d]pyrimidine-7-carboxylic acid (5,6-dimethyl-pyridin-2-yl)-amide]
- IC50 [1]: 1.67 µM

SMILES: Cn1cc(NC(=O)c2csc3cnc(N[C@@H]4CCOC[C@@H]4N)nc23)cn1 [Compound 21, 2-((3R,4R)-3-Amino-tetrahydro-pyran-4-ylamino)-thieno[3,2-d]pyrimidine-7-carboxylic acid (1-methyl-1H-pyrazol-4-yl)-amide]
- IC50 [1]: 5.8 µM

SMILES: N[C@H]1CCCC[C@H]1Nc1ncc2scc(C(=O)Nc3nc4ccccc4[nH]3)c2n1 [Compound 9, 2-((1R,2S)-2-Amino-cyclohexylamino)-thieno[3,2-d]pyrimidine-7-carboxylic acid (1H-benzoimidazol-2-yl)-amide]
- IC50 [1]: 50 µM

SMILES: N[C@H]1CCCC[C@H]1Nc1ncc2scc(C(=O)Nc3ccc4cnccc4n3)c2n1 [Compound 7, 2-((1R,2S)-2-Amino-cyclohexylamino)-thieno[3,2-d]pyrimidine-7-carboxylic acid [1,6]naphthyridin-2-ylamide]
- IC50 [1]: 0.55 µM

SMILES: Cn1ccc(NC(=O)c2csc3cnc(N[C@@H]4CCOC[C@@H]4N)nc23)n1 [Compound 19, 2-((3R,4R)-3-Amino-tetrahydro-pyran-4-ylamino)-thieno[3,2-d]pyrimidine-7-carboxylic acid (1-methyl-1H-pyrazol-3-yl)-amide]
- IC50 [1]: 10.7 µM

SMILES: Cc1nc(NC(=O)c2csc3cnc(N[C@@H]4CCCC[C@@H]4N)nc23)ccc1C#N [Compound 4, 2-((1R,2S)-2-Amino-cyclohexylamino)-thieno[3,2-d]pyrimidine-7-carboxylic acid (5-cyano-6-methyl-pyridin-2-yl)-amide]
- IC50 [1]: 50 µM

SMILES: CCc1cccc(NC(=O)c2csc3cnc(N[C@@H]4CCOC[C@@H]4N)nc23)n1 [Compound 1, 2-((3R,4R)-3-Amino-tetrahydro-pyran-4-ylamino)-thieno[3,2-d]pyrimidine-7-carboxylic acid (6-ethyl-pyridin-2-yl)-amide]
- IC50 [1]: 5.38 µM

SMILES: N[C@H]1COCC[C@H]1Nc1ncc2scc(C(=O)Nc3cnc4cccnn34)c2n1 [Compound 23, 2-((3R,4R)-3-Amino-tetrahydro-pyran-4-ylamino)-thieno[3,2-d]pyrimidine-7-carboxylic acid imidazo[1,2-b]pyridazin-3-ylamide]
- IC50 [1]: 1.36 µM

SMILES: N[C@H]1CCCC[C@H]1Nc1ncc2scc(C(=O)Nc3nc4ccccc4s3)c2n1 [Compound 8, 2-((1R,2S)-2-Amino-cyclohexylamino)-thieno[3,2-d]pyrimidine-7-carboxylic acid benzothiazol-2-ylamide]
- IC50 [1]: 50 µM

SMILES: N[C@H]1COCC[C@H]1Nc1ncc2scc(C(=O)Nc3cccc(-n4nccn4)n3)c2n1 [Compound 5, 2-((3R,4R)-3-Amino-tetrahydro-pyran-4-ylamino)-thieno[3,2-d]pyrimidine-7-carboxylic acid (6-[1,2,3]triazol-2-yl-pyridin-2-yl)-amide]
- IC50 [1]: 3.79 µM

SMILES: CCc1cc(NC(=O)c2csc3cnc(N[C@@H]4CCCC[C@@H]4N)nc23)cc2cccnc12 [Compound 3, 2-((1R,2S)-2-Amino-cyclohexylamino)-thieno[3,2-d]pyrimidine-7-carboxylic acid (8-ethyl-quinolin-6-yl)-amide]
- IC50 [1]: 0.76 µM

SMILES: Cn1nc(NC(=O)c2csc3cnc(N[C@@H]4CCCC[C@@H]4N)nc23)c2ccc(F)cc21 [Compound 15, 2-((1R,2S)-2-Amino-cyclohexylamino)-thieno[3,2-d]pyrimidine-7-carboxylic acid (6-fluoro-1-methyl-1H-indazol-3-yl)-amide trifluoroacetate]
- IC50 [1]: 50 µM
